From patent publication US8106055B2, “Substituted amide compounds” (Gruenenthal GmbH, priority 2007, dated 2012)

Columns and labels:
[1] = target: T1, serotonin (5-HT) reuptake (Rattus norvegicus, UniProt P31652); assay: Inhibition of serotonin (5HT) reuptake in synaptosomes from rat brain; format: biochemical; settings: test concentration of 10 μM
T1 construct: synaptosomes are freshly isolated from areas of the rat brain; from tissue; host or cells: rat brain synaptosomes (P2 fraction)
Summary of the method: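 Compounds screened at 10 μM and reported as percent inhibition of serotonin uptake. Uptake measured in a freshly prepared P2 synaptosomal fraction from rat brain.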

[2] = target: T2, human bradykinin 1 receptor (B1R) (Homo sapiens, UniProt P46663); assay: Functional investigation on the human bradykinin 1 receptor (B1R), Ca2+ FLIPR assay in CHO K1 hB1R cells; format: cell-based; settings: B1R antagonism human; test substance 10 μM; Ca2+ FLIPR, CHO K1 hB1R cells
T2 construct: expressed in transfected cells; host or cells: CHO K1 cells
T2 sequence (P46663 1-353): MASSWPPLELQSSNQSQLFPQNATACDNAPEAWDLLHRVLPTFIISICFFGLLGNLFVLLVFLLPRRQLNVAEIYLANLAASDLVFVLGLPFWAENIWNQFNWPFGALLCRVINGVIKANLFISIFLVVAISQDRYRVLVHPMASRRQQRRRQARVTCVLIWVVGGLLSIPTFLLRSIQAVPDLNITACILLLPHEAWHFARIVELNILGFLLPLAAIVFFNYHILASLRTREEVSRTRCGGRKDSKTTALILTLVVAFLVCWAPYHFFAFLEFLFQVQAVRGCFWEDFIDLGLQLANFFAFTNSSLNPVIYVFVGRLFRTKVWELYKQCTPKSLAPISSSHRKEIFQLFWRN
Summary of the method: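 Fluo-4 Ca2+ readout, peak fluorescence. Stable CHO K1 transfectants; compound pre-incubated 10-20 min, then EC80 agonist—Lys-Des-Arg9-BK for hB1R, Des-Arg9-BK for rB1R. % inhibition vs maximal inhibition; IC50 from multiple concentrations, duplicate/triplicate, ≥2 independent runs.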

T1 sequence (P31652 whole entry): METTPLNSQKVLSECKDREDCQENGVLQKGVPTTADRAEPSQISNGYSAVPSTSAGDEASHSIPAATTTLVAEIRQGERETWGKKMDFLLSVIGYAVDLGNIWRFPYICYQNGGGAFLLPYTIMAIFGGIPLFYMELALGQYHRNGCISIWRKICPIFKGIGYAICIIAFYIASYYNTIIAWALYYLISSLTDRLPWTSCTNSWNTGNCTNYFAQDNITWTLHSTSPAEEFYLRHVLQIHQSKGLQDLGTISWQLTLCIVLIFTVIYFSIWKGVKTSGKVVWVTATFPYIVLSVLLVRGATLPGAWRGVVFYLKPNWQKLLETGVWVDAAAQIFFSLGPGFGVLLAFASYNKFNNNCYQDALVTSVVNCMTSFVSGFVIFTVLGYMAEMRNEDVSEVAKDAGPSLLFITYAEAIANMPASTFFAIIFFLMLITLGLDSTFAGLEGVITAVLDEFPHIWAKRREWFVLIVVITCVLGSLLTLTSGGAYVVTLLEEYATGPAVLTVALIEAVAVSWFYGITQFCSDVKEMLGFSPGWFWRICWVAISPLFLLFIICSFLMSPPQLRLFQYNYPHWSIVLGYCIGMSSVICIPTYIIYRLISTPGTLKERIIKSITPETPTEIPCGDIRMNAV

| SMILES | 5-HT (inhibition of reuptake of serotonin, % inhibition) [1] [%] | B1R Ant. h [10 μM] % Inhibition [2] [%] |
| --- | --- | --- |
| CN(C)C(c1ccc(F)cc1)C1CCC(CNC(=O)COCCN(C)S(=O)(=O)c2c(Cl)cc(Cl)cc2Cl)CC1 (stereo not drawn) [Example 404] | 96 | 104 |
| COc1cc(C)c(S(=O)(=O)N(CCOCC(=O)NC2CCC(C(c3cccc(F)c3)N(C)C)CC2)Cc2ccccc2)c(C)c1 (stereo not drawn) [Example 372] | 89 | 65 |
| COc1cc(C)c(S(=O)(=O)N2CCC(OCC(=O)NCC3CCC(C(c4ccc(F)cc4)N(C)C)CC3)C2)c(C)c1C (stereo not drawn) [Example 427] | 94 | 76 |
| CN(C)C(CCc1ccccc1)C1CCC(CNC(=O)COCCN(C)S(=O)(=O)c2ccc(Cl)cc2)CC1 (stereo not drawn) [Example 445] | 87 | 66 |
| COc1cc(C)c(S(=O)(=O)N2CCC(OCC(=O)NCC3CCC(C(c4ccc(Cl)cc4)N(C)C)CC3)C2)c(C)c1 (stereo not drawn) [Example 403] | 93 | 106 |
| COc1ccc(S(=O)(=O)N2CCCCC2COCC(=O)NCC2CCC(C(c3ccc(Cl)cc3)N(C)C)CC2)cc1OC (stereo not drawn) [Example 367] | 89 | −9 |
| CN(C)C(CCc1ccccc1)C1CCC(CNC(=O)COCC2CCCN2S(=O)(=O)c2ccc(Cl)c(Cl)c2)CC1 (stereo not drawn) [Example 415] | 88 | 96 |
| CN(C)C(c1ccc(Cl)cc1)C1CCC(CNC(=O)COC2CCN(S(=O)(=O)c3ccc(F)cc3)C2)CC1 (stereo not drawn) [Example 394] | 93 | 2 |
| COc1cc(C)c(S(=O)(=O)N2CCCC(OCC(=O)NC3CCC(C(c4ccc(F)cc4)N(C)C)CC3)C2)c(C)c1C (stereo not drawn) [Example 435] | 91 | 15 |
| CN(C)C(c1ccc(F)cc1)C1CCC(CNC(=O)COC2CCN(S(=O)(=O)c3cccc(C(F)(F)F)c3)C2)CC1 (stereo not drawn) [Example 402] | 77 | 0 |
| COc1cc(C)c(S(=O)(=O)N(CCOCC(=O)NCC2CCC(C(c3cccc(F)c3)N(C)C)CC2)Cc2ccccc2)c(C)c1C (stereo not drawn) [Example 414] | 67 | 28 |
| CN(C)C(c1ccc(F)cc1)C1CCC(NC(=O)COC2CCN(S(=O)(=O)c3ccc(F)cc3)C2)CC1 (stereo not drawn) [Example 381] | 79 | −19 |
| CN(C)C(c1cccc(F)c1)C1CCC(CCNC(=O)COC2CCN(S(=O)(=O)c3ccccc3)C2)CC1 (stereo not drawn) [Example 376] | 88 | −17 |
| CN(C)C(c1ccc(F)cc1)C1CCC(CCNC(=O)COCCN(C)S(=O)(=O)c2ccc(OC(F)(F)F)cc2)CC1 (stereo not drawn) [Example 446] | 90 | 19 |
| CN(C)C(c1ccc(F)cc1)C1CCC(NC(=O)COC2CCCN(S(=O)(=O)c3ccccc3)C2)CC1 (stereo not drawn) [Example 423] | 95 | 4 |
| COc1ccc(S(=O)(=O)N2CCC(OCC(=O)NCCC3CCC(C(c4ccc(F)cc4)N(C)C)CC3)C2)cc1OC (stereo not drawn) [Example 430] | 92 | −7 |
| COc1cc(C)c(S(=O)(=O)N2CCC(OCC(=O)NCC3CCC(C(c4ccc(Cl)cc4)N(C)C)CC3)C2)c(C)c1C (stereo not drawn) [Example 428] | 88 | 48 |
| CN(C)C(c1ccc(Cl)cc1)C1CCC(CCNC(=O)COCCN(C)S(=O)(=O)c2c(Cl)cc(Cl)cc2Cl)CC1 (stereo not drawn) [Example 442] | 91 | 84 |
| COc1cc(C)c(S(=O)(=O)N2CCN(CCOCC(=O)NCC3CCC(C(c4ccc(F)cc4)N(C)C)CC3)CC2)c(C)c1C (stereo not drawn) [Example 366] | 96 | 55 |
| COc1cc(C)c(S(=O)(=O)N(C)CCOCC(=O)NCCC2CCC(C(c3ccc(F)cc3)N(C)C)CC2)c(C)c1 (stereo not drawn) [Example 392] | 89 | 104 |
| Cc1ccc(S(=O)(=O)N2CCC(OCC(=O)NC3CCC(C(c4ccc(F)cc4)N(C)C)CC3)C2)cc1 (stereo not drawn) [Example 371] | 85 | 7 |

| SMILES | 5-HT (inhibition of reuptake of serotonin, % inhibition) [1] [%] | B1R Ant. h [10 μM] % Inhibition [2] [%] |
| --- | --- | --- |
| CN(C)C(c1ccc(Cl)cc1)C1CCC(CCNC(=O)COC2CCN(S(=O)(=O)c3cccc(C(F)(F)F)c3)C2)CC1 (stereo not drawn) [Example 431] | 93 | 25 |
| CN(C)C(c1ccc(F)cc1)C1CCC(NC(=O)COC2CCN(S(=O)(=O)c3ccc(Cl)cc3)C2)CC1 (stereo not drawn) [Example 370] | 83 | −14 |
| COc1cc(C)c(S(=O)(=O)N(CCOCC(=O)NCC2CCC(C(c3cccc(F)c3)N(C)C)CC2)Cc2ccccc2)c(C)c1 (stereo not drawn) [Example 388] | 91 | 74 |
| COc1ccc(S(=O)(=O)N2CCCC2COCC(=O)NCCC2CCC(C(c3ccc(F)cc3)N(C)C)CC2)cc1 (stereo not drawn) [Example 409] | 97 | 45 |
| CN(C)C(c1ccc(F)cc1)C1CCC(CNC(=O)COCC2CCCN(S(=O)(=O)c3ccccc3)C2)CC1 (stereo not drawn) [Example 424] | 96 | −12 |
| CN(C)C(c1ccc(Cl)cc1)C1CCC(CCNC(=O)COC2CCN(S(=O)(=O)c3ccccc3)CC2)CC1 (stereo not drawn) [Example 443] | 96 | 21 |
| CN(C)C(c1ccc(Cl)cc1)C1CCC(CCNC(=O)COC2CCCCC2N(C)S(=O)(=O)c2ccc(Cl)c(Cl)c2)CC1 (stereo not drawn) [Example 410] | 78 | 1 |
| Cc1cc(C)c(S(=O)(=O)N2CCC(OCC(=O)NCC3CCC(C(c4ccc(F)cc4)N(C)C)CC3)C2)c(C)c1 (stereo not drawn) [Example 432] | 82 | 61 |
| COc1ccc(S(=O)(=O)N2CCCCC2CCOCC(=O)NCCC2CCC(C(c3ccc(Cl)cc3)N(C)C)CC2)cc1 (stereo not drawn) [Example 383] | 94 | 77 |
| CN(C)C(c1ccc(F)cc1)C1CCC(CNC(=O)COC2CCN(S(=O)(=O)c3ccc(Cl)cc3Cl)C2)CC1 (stereo not drawn) [Example 391] | 85 | 71 |
| COc1ccc(S(=O)(=O)N2Cc3ccccc3CC2COCC(=O)NCC2CCC(C(CCc3ccccc3)N(C)C)CC2)cc1 (stereo not drawn) [Example 373] | 85 | 98 |
| Cc1cc(C)c(S(=O)(=O)N2CCC(OCC(=O)NCC3CCC(C(c4ccc(Cl)cc4)N(C)C)CC3)C2)c(C)c1 (stereo not drawn) [Example 393] | 70 | 97 |
| CN(C)C(c1cccc(F)c1)C1CCC(CCNC(=O)COC2CCN(S(=O)(=O)c3ccccc3)CC2)CC1 (stereo not drawn) [Example 444] | 96 | −20 |
| CN(C)C(c1ccc(F)cc1)C1CCC(NC(=O)COCCN(C)S(=O)(=O)c2ccc(Cl)cc2)CC1 (stereo not drawn) [Example 406] | 93 | 5 |
| CN(C)C(c1ccc(Cl)cc1)C1CCC(CCNC(=O)COC2CCCN(S(=O)(=O)c3ccccc3)C2)CC1 (stereo not drawn) [Example 395] | 96 | 27 |
| CN(C)C(c1ccc(F)cc1)C1CCC(CNC(=O)COCCN(C)S(=O)(=O)c2ccc(Cl)cc2)CC1 (stereo not drawn) [Example 399] | 89 | 20 |
| CN(C)C(c1ccc(F)cc1)C1CCC(NC(=O)COCCN(C)S(=O)(=O)c2cccc(C(F)(F)F)c2)CC1 (stereo not drawn) [Example 438] | 84 | 9 |
| CN(C)C(c1ccc(F)cc1)C1CCC(CCNC(=O)COCCN(C)S(=O)(=O)c2c(Cl)cc(Cl)cc2Cl)CC1 (stereo not drawn) [Example 386] | 98 | 104 |
| CN(C)C(c1cccc(F)c1)C1CCC(CCNC(=O)COC2CCN(S(=O)(=O)c3ccc(F)cc3)C2)CC1 (stereo not drawn) [Example 407] | 95 | 4 |
| CN(C)C(c1ccc(Cl)cc1)C1CCC(CNC(=O)COC2CCN(S(=O)(=O)c3ccc(Cl)cc3)C2)CC1 (stereo not drawn) [Example 384] | 87 | 31 |
| CN(C)C(c1ccc(F)cc1)C1CCC(CNC(=O)COCCN(C)S(=O)(=O)c2cccc(C(F)(F)F)c2)CC1 (stereo not drawn) [Example 390] | 90 | 55 |
